Values of other authors in patent publication US20260234616A1, “CELL-PENETRATING PEPTIDES, CONJUGATES THEREOF, AND METHODS OF THEIR USE” (PepGen Inc., priority 2022, published 2026).

System: dystrophin
Conditions: DMD patients; reported by the sponsor

For eteplirsen, the “levels of dystrophin restoration in patients” value is listed as “approximately 1 % of normal”.
